From US10792301B2, “Therapeutic polysaccharide midi-GAGR and related materials and methods” (priority 2015, dated 2020)

Tested on: primary mouse cortical neurons (E17, DIV4)
Experiment: Neurite outgrowth in primary mouse cortical neurons
Assay type: cell-based
Details: 2 days; 1 μM midi-GAGR, dextran, alginate; 0.1 μM LA-GAGR; 0.01 μM HA-GAGR
Description: To analyze the effect of polysaccharides on neurite outgrowth, primary mouse cortical neurons were treated with vehicle (H2O) or 1 μM of dextran, alginate, or midi-GAGR, 0.01 μM of HA-GAGR, or 0.1 μM of LA-GAGR for 2 days prior to immunocytochemistry using anti-α-tubulin antibody and secondary Alexa488nm antibody. An etched grid coverslip containing 200 numbered boxes was used to select neurons objectively for image acquisition and analysis. A total of 24 boxes were randomly selected per treatment group. All the neurons having total neurite length longer than 4 times of the diameter of neuron cell body were chosen for image analysis. The total length of the neurites of each neuron was measured using Metamorph and used to calculate average total neurite length. To examine the effect of polysaccharides on the phosphorylation (activation) of nuclear CREB, neurons were stained with anti-pCREB antibody (Abcam & Santa Cruz biotechnologies, 2nd antibody with Alexa568nm), anti-α-tubulin antibody (Sigma, 2nd antibody with Alexa488nm), and DAPI (Sigma) after two-day incubation with vehicle (H2O) or 1 μM of dextran, alginate, or midi-GAGR, 0.01 μM of HA-GAGR, or 0.1 μM of LA-GAGR. […] The images of neurons on coverslips were taken by confocal microscopy at the same gain (850), offset (˜0.01) and exposure time (2 sec). The intensity of the staining of nuclear pCREB was measured using Metamorph and used to calculate average intensity. In addition, the phosphorylation of CREB in the cytosols of mouse cortical neurons treated with polysaccharides were detected by immunoblotting. Primary mouse neurons were dissected from 16 mouse embryos (E17) and plated in the wells of 6-well plates (1×10^6 cells/well), differentiated for 6 days, and treated with polysaccharides for 48 h. […] The protein bands on blots recognized by anti-pCREB (Santa Cruz Biotechnologies) and anti-CREB antibodies were detected on Amersham Hyperfilm™ ECL films (GE Healthcare Life Science) using SuperSignal® West Pico Chemiluminescent Substrate (Thermo Scientific).

For dextran, the “fold change in average total neurite length compared to vehicle” value was “did not enhance neuritogenesis”.
